Test results taken from patent US7355063B2, “Shogaol compound and tyrosinase activity inhibitor comprising the compound” (Toagosei Co., Ltd., priority 2003, dated 2008).

Legend:
[1] = system: mushroom tyrosinase; assay: Tyrosinase activity inhibition test using L-dopa as substrate (Test Examples 1 and 2, absorbance at 475 nm); format: biochemical; settings: Table 1
Experimental: Using the compound 7 obtained in Example 2, the compound 13 obtained in Example 5, a mixture of the compound 18 and the compound 19 (existing molar ratio 45:55) obtained in Example 7, and arbutin (manufactured by Tokyo Kasei Kogyo Co., Ltd.) as a comparative control, a tyrosinase activity inhibition test was carried out using L-dopa as a substrate.
The specific test procedures are as follows. • (1) 1.80 ml of a phosphate buffer prepared by dissolving 1.000 g of sodium dihydrogen phosphate and 1.186 g of disodium hydrogen phosphate in 500 ml of distilled water, 1.00 ml of a substrate solution prepared by dissolving 32.7 mg of L-DOPA in 200 ml of distilled water, and 0.10 ml of a test solution prepared by dissolving the test compound in dimethyl sulfoxide were mixed together. • (2) 0.10 ml of an enzyme solution prepared by dissolving 3.0 mg (2400 units; manufactured by Sigma Corporation) of mushroom tyrosinase in 7.0 ml of distilled water was added to the solution prepared in (1), and the whole was stirred for 15 seconds. The resulting solution was maintained at 25° C., and the absorbance at 475 nm was measured one minute and 45 seconds later and 2 minutes and 45 seconds later. • (3) The test operations in the above (1) and (2) were conducted three times for the individual test compounds and blank test (only dimethyl sulfoxide), and the resulting numeric value was inserted in the following calculation formula and a mean value thereof was regarded as a tyrosinase activity inhibition ratio (%). Tyrosinase activity inhibition ratio (%)=[(T^1−T^2)/T^1]×100 • T^1=difference in absorbance of solution with addition of no test compound between 2 minutes and 45 seconds later and one minute and 45 seconds later • T^2=difference in absorbance of solution with addition of test compound was added between 2 minutes and 45 seconds later and one minute and 45 seconds later
Using the compound 40 obtained in Example 24 and arbutin (manufactured by Tokyo Kasei Kogyo Co., Ltd.) as a comparative control, a tyrosinase activity inhibition test was carried out using L-dopa as a substrate. The test procedure was in accordance with Test Example 1.

[2] = Dissolution of test compound for the hyaluronic acid-degrading enzyme test; format: physicochemical; settings: concentration of 0.4 mg/ml, acetate buffer
Experimental: First, the following solutions shown in A to H were each prepared. • A: 0.1M acetate buffer solution was prepared by dissolving 0.60 g of acetic acid in 100 ml of distilled water. • B: A hyaluronidase solution was prepared by dissolving 7.2 mg of a hyaluronic acid-degrading enzyme (derived from bovine testicles manufactured by Sigma Corporation, Type IV-S) into 3.0 ml of the acetate buffer (prepared in the above A). • C: An activator solution was prepared by dissolving 1.0 mg of compound 48/80 (a hyaluronidase activator manufactured by Sigma Corporation) into 10.0 ml of the acetate buffer (prepared in the above A). • D: A hyaluronic acid solution was prepared by dissolving 12.0 mg of potassium hyaluronate (manufactured by Wako Pure Chemical Industries, Ltd.) into 15.0 ml of the acetate buffer (prepared in the above A). • E: A 0.4N sodium hydroxide aqueous solution was prepared by dissolving 1.60 g of sodium hydroxide into 100 ml of distilled water. • F: After 4.95 g of boric acid was dissolved into 50 ml of distilled water, a 1N sodium hydroxide aqueous solution was added until pH reached 9.1. Subsequently, the whole amount was made 100 ml by adding distilled water. • G: 1.0 g of p-dimethylaminobenzaldehyde, 1.25 ml of 10N hydrochloric acid, and 8.75 ml of acetic acid were mixed. […]

[3] = Test of scavenging DPPH radical (Test Example 8, 517 nm); settings: final concentration of 10 μg/mL; 20 minutes, room temperature
Experimental: Using the compound 7 obtained in Example 2 as well as dl-α-tocopherol (manufactured by Tokyo Kasei Kogyo Co., Ltd.) and butylhydroxytoluene (BHT) as comparative controls, a test of scavenging DDPH (1,1-diphenyl-2-picrylhydrazyl) radical, a stable radical, was carried out.
1 ml of 200 μM DPPH ethanol solution was added to 800 μl of 100 mM Tris-HCl buffer (pH 7.4) and 200 μl of an ethanol solution of the compound 7 (a final concentration of 10 μg/mL), followed by sufficient stirring. After the resulting mixture was allowed to stand in a dark place at room temperature for 20 minutes, the absorbance at 517 nm was measured (absorbance of the test solution)
The compound 13 of the invention as well as dl-α-tocopherol and butylhydroxytoluene as a known radical scavenger were similarly tested.
As a control, 800 μl of 100 mM Tris-HCl buffer (pH 7.4), 200 μl of ethanol, and 1 ml of 200 μM DPPH ethanol solution were used in the same manner as described above and the absorbance was measured (absorbance of the control solution).
With the individual compounds, the same measurement was repeated three times, and the mean value was inserted in the following formula to calculate a DPPH radical-scavenging ratio (%). DPPH radical-scavenging ratio (%)=[1−(absorbance of sample solution/absorbance of control solution)]×100

[4] = target: T1, hyaluronic acid-degrading enzyme (derived from bovine testicles, Type IV-S) (Bos taurus, UniProt Q2YDK3); assay: Hyaluronic acid-degrading enzyme activity inhibition test; format: biochemical
T1 construct: derived from bovine testicles manufactured by Sigma Corporation, Type IV-S; purchased Sigma Corporation Type IV-S; host or cells: bovine testicles
T1 sequence (Q2YDK3 36-553): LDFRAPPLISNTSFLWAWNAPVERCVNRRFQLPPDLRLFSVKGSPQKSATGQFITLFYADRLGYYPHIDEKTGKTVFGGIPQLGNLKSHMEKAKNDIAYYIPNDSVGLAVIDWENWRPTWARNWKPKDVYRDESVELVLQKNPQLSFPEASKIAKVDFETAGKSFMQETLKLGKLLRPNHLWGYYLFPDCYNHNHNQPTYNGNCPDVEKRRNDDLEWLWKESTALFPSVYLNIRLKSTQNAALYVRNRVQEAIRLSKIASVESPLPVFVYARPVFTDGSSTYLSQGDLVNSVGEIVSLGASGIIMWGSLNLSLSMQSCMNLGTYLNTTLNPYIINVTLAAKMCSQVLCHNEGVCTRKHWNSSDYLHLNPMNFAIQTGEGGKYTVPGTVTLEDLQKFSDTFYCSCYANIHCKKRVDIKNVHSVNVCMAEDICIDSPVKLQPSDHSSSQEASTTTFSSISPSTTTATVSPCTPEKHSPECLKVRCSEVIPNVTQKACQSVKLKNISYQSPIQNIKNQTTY
Experimental: Using the compound 7 obtained in Example 2, the compound 34, and magnesium ascorbate phosphate as a comparative control, a hyaluronic acid-degrading enzyme activity inhibition test was carried out.
First, the following solutions shown in A to H were each prepared. • A: 0.1M acetate buffer solution was prepared by dissolving 0.60 g of acetic acid in 100 ml of distilled water. • B: A hyaluronidase solution was prepared by dissolving 7.2 mg of a hyaluronic acid-degrading enzyme (derived from bovine testicles manufactured by Sigma Corporation, Type IV-S) into 3.0 ml of the acetate buffer (prepared in the above A). • C: An activator solution was prepared by dissolving 1.0 mg of compound 48/80 (a hyaluronidase activator manufactured by Sigma Corporation) into 10.0 ml of the acetate buffer (prepared in the above A). • D: A hyaluronic acid solution was prepared by dissolving 12.0 mg of potassium hyaluronate (manufactured by Wako Pure Chemical Industries, Ltd.) into 15.0 ml of the acetate buffer (prepared in the above A). • E: A 0.4N sodium hydroxide aqueous solution was prepared by dissolving 1.60 g of sodium hydroxide into 100 ml of distilled water. • F: After 4.95 g of boric acid was dissolved into 50 ml of distilled water, a 1N sodium hydroxide aqueous solution was added until pH reached 9.1. Subsequently, the whole amount was made 100 ml by adding distilled water. • G: 1.0 g of p-dimethylaminobenzaldehyde, 1.25 ml of 10N hydrochloric acid, and 8.75 ml of acetic acid were mixed. The solution was used after the whole amount was made 100 ml by adding acetic acid immediately before use. • H: Each test compound was dissolved in the acetate buffer (prepared in the above A) so the final test concentration became 0.5 mg/ml and 1.0 mg/ml.
Next, the experimental operation was carried out with the procedures shown in the following (1) to (8).
(1) 0.2 ml of the test compound solution (prepared in the above H) and 0.1 ml of the hyaluronic acid-degrading enzyme solution (prepared in the B) were mixed and the whole was incubated at 37° C. for 20 minutes.
(2) To the above reaction solution was added 0.2 ml of the activator solution (prepared in the above C) and the whole was incubated at 37° C. for 20 minutes.
(3) To the above reaction solution was added 0.5 ml of the hyaluronic acid solution (prepared in the above D), and the whole was incubated at 37° C. for 40 minutes.
(4) To the above reaction solution was added 0.2 ml of the 0.4N sodium hydroxide aqueous solution (prepared in the above E), and the whole was cooled in an ice bath.
(5) To the above reaction solution was added 0.2 ml of the boric acid solution (prepared in the above F), and the whole was heated at 100° C. for 3 minutes.
(6) The above reaction solution was cooled in an ice bath.
(7) To the above reaction solution was added 3.0 ml of the p-dimethylaminobenzaldehyde solution (prepared in the above G), and the whole was incubated at 37° C. for 20 minutes.
(8) Absorbance of the reaction solution at 585 nm was measured using a spectrophotometer.
The above experimental operations were repeated three times, and the resulting numeric value was inserted in the following calculation formula and a mean value thereof was regarded as a hyaluronic acid-degrading enzyme activity inhibition ratio (%). Hyaluronic acid-degrading enzyme activity inhibition ratio (%)=(A−B)/A×100
A=absorbance obtained at the time when operation was carried out with addition of no test compound
B=absorbance obtained at the time when operation was carried out with addition of test compound
The compounds of the invention and magnesium ascorbate phosphate were each used in an enzymatic reaction solution in amounts of 0.1 mg/ml, 0.2 mg/ml, and 0.4 mg/ml, and the results were shown in Table 7 (since the compound 7 was not dissolved in a concentration of 0.4 mg/ml, the test was not carried out).

- Tyrosinase activity inhibition ratio (%) ([1]; 0.5 mg/mL in enzymatic reaction solution): 59.8%
- Tyrosinase activity inhibition ratio (%) ([1]; 1 mg/mL in enzymatic reaction solution): 77.1%
- Solubility in the test solution [2]: not dissolved
- Hyaluronic acid-degrading enzyme activity inhibition ratio (%) ([4]; 0.1 mg/mL): 10.6%
- Hyaluronic acid-degrading enzyme activity inhibition ratio (%) ([4]; 0.2 mg/mL): 41.3%
Structure (SMILES): COc1cc(CCC(=O)/C=C/CCCCCCC(=O)O)ccc1O [Compound 7]
- DPPH radical-scavenging ratio (%) [3]: 33.7%
